Measured values as given in PMC6410080 (Viruses, 2019).
Where a name gives a salt, the structure may show the parent alone. Read-outs that look alike come from different tables or passages of the source.

How the values were obtained:
SFV [1] = assay: microbe, parasite or virus in culture; format: cell-based, Semliki Forest virus; settings: Semliki Forest virus; for inhibition at 10 µM: M-HeLa, 7 h, read-out: % inhibition (SFV screen); for IC50: HeLa Kyoto, read-out: IC50 SFV (7 h)
DENV-2 = DENV-2 infection assay / secondary screen (E protein staining); format: cell-based, dengue virus serotype 2; settings: Dengue virus, DENV2, Huh-7, 24 h; for inhibition at 10 µM: read-out: % inhibition (DENV-2 screen)
[2] = system: DID-labelled SFV hemifusion/fusion; format: cell-based, Semliki Forest virus; settings: HeLa Kyoto, 10 μM (20 μM Raloxifene; Bafilomycin 100 nM), 40 min at 37 °C
SFV [3] = format: cell-based, Semliki Forest virus
viruses/VLPs tested = format: cell-based
Huh7 cells = assay: MTT assay, Huh7 cells; settings: for TC50 DENV-2 (7 + 17 h): Huh7, compounds 7 h then compound-free media 17 h; for TC50 DENV-2 (24 h): Huh7, compounds 24 h
SINV = assay: microbe, parasite or virus in culture; format: cell-based, Sindbis virus; settings: Sindbis virus, HeLa Kyoto, read-out: IC50 SINV
DENV-1 = assay: microbe, parasite or virus in culture; format: cell-based, dengue virus; settings: Dengue virus, DENV1, Huh-7, read-out: IC50 DENV-1
DENV-3 = assay: microbe, parasite or virus in culture; format: cell-based, dengue virus; settings: Dengue virus, DENV3, Huh-7, read-out: IC50 DENV-3
ZIKV = assay: microbe, parasite or virus in culture; format: cell-based, Zika virus
YF17D = assay: organism not typed; format: cell-based, yellow fever 17D; settings: Huh-7, read-out: IC50 YF17D
HCV = assay: microbe, parasite or virus in culture; format: cell-based, hepatitis C virus; settings: Hepatitis C virus, Huh7.5, read-out: IC50 HCV
VSV VLP = assay: microbe, parasite or virus in culture; format: cell-based, vesicular stomatitis virus; settings: Vesicular stomatitis virus, HeLa Kyoto, 24 h, read-out: IC50 VSV
RABV VLP = assay: microbe, parasite or virus in culture; format: cell-based, rabies virus; settings: for IC50: Lyssavirus rabies, HeLa Kyoto, 24 h, read-out: IC50 RABV
H5N1 VLP = assay: microbe, parasite or virus in culture; format: cell-based, influenza H5N1; settings: for IC50: Influenza A virus, H5N1, HeLa Kyoto, 48 h, read-out: IC50 H5N1
EBOV VLP = assay: microbe, parasite or virus in culture; format: cell-based, Ebola virus; settings: Zaire ebolavirus, HeLa Kyoto, 48 h, read-out: IC50 EBOV
HIV-1 = assay: microbe, parasite or virus in culture; format: cell-based, human immunodeficiency virus type 1; settings: virus, HeLa TZM-bl, 24 h
HSV-1 = assay: microbe, parasite or virus in culture; format: cell-based, herpes simplex virus 1; settings: 8 h; for IC50: Human alphaherpesvirus 1, Vero, read-out: IC50 HSV (Vero)
VACV = assay: microbe, parasite or virus in culture; format: cell-based, vaccinia virus; settings: for IC50: Orthopoxvirus vaccinia, HeLa Kyoto, 8 h, read-out: IC50 VACV
HeLa Kyoto cells = settings: human
in vitro [4] = settings: human, % viability (SFV screen)
in vitro [5] = settings: human
SFV E1 trimer formation = settings: HeLa Kyoto, MOI 100; Chloroquine 100 μM
VSV_Blam_VLP fusion = assay: microbe, parasite or virus in culture; format: cell-based; settings: Vesicular stomatitis virus, HeLa Kyoto, read-out: Inhibition of VSV_Blam_VLP fusion compared to DMSO controls
[6] = read-out: IC50 DENV-2 (7 + 17 h)

SMILES	inhibition at 10 µM (SFV [1]) [%]	inhibition at 10 µM (DENV-2) [%]	Inhibition of DID-SFV de-quenching (in words) [2]	Activity when added before SFV or 30 and 60 min after internalisation (SFV [3])	Time of Addition (SFV [3])	Viruses Inhibited (viruses/VLPs tested)	TC50 DENV-2 (7 + 17 h) (Huh7 cells) [µM]	TC50 DENV-2 (24 h) (Huh7 cells) [µM]	IC50 (SFV [1]) [µM]	IC50 (DENV-2; [6]) [µM]	IC50 (DENV-2; read-out: IC50 DENV-2 (24 h)) [µM]	IC50 (SINV) [µM]	IC50 (DENV-1) [µM]	IC50 (DENV-3) [µM]	IC50 (YF17D) [µM]	IC50 (HCV) [µM]	IC50 (VSV VLP) [µM]	IC50 (EBOV VLP) [µM]	IC50 HIV (HIV-1)	TC50 SFV (7 h) (HeLa Kyoto cells) [µM]	other results
CCCCc1oc2ccccc2c1C(=O)c1cc(I)c(OCCN(CC)CC)c(I)c1 [Amiodarone, Amiodarone hydrochloride]	85.5	92.9	Intermediate levels of inhibition	act exclusively before (or at the stage of) fusion	Before fusion	Endosomal pH-dep.	40.6	~25.5	–	–	–	–	–	–	–	–	–	–	–	–	–
CCN(CC)Cc1cc(Nc2ccnc3cc(Cl)ccc23)ccc1O [Amodiaquine, Amodiaquine dihydrochloride dihydrate]	73.3	92.1	Intermediate levels of inhibition	act exclusively before (or at the stage of) fusion	Before fusion	Endosomal pH-dep.	44.2	18.4	8.5	12.7	17.2	11.3	~24.8	~25	5.3	4.2	11.2	0.9	No inhibition	>50	IC50 ZIKV (ZIKV): No inhibition; IC50 (RABV VLP): 23.5 µM; IC50 (H5N1 VLP): 13.6 µM; IC50 (HSV-1): 28.2 µM; IC50 VACV (VACV): No inhibition; TC50 SFV (7h) (HeLa Kyoto cells): >50000 µM; viability at 10 µM (in vitro [4]): 115%; viability at 10 µM (in vitro [5]): 79%
CC(C)COCC(CN(Cc1ccccc1)c1ccccc1)N1CCCC1 (stereo not drawn) [Bepridil, Bepridil hydrochloride]	91.2	97.8	Intermediate levels of inhibition	act exclusively before (or at the stage of) fusion	Before fusion	Endosomal pH-dep.	~48.8	~23.4	9.5	15.2	12.1	14.6	~20	~20	7.1	~12.4	10.4	0.8	No inhibition	34.9	IC50 (ZIKV; Zika virus, Huh-7, read-out: IC50 ZIKV): ~25.2 µM; IC50 (RABV VLP): 6.9 µM; IC50 (H5N1 VLP): 8.2 µM; IC50 HSV (Vero) (HSV-1; virus, Vero cells): No inhibition; IC50 (VACV): 26.8 µM; TC50 SFV (7h) (HeLa Kyoto cells): 34900 µM; viability at 10 µM (in vitro [4]): 71.3%; viability at 10 µM (in vitro [5]): 48.7%
CCN(CC)CCCC(C)Nc1ccnc2cc(Cl)ccc12 (stereo not drawn) [Chloroquine]	–	–	–	–	–	–	–	–	–	–	–	–	–	–	–	–	–	–	–	–	SFV E1 trimer formation (SFV E1 trimer formation): prevented trimer formation
O=C(c1ccc(OCCN2CCCCC2)cc1)c1c(-c2ccc(O)cc2)sc2cc(O)ccc12 [Raloxifene, Raloxifene hydrochloride]	87.7	80	Intermediate levels of inhibition	minor but reproducible decrease in activity	Before and after fusion	Unclear pattern	24.8	~22.63	15.1	5.7	9.8	30.6	8.8	5.3	7.8	3.9	12.7	1.4	No inhibition	>50	IC50 RABV (RABV VLP): No inhibition; IC50 H5N1 (H5N1 VLP): No inhibition; IC50 (HSV-1): 23.5 µM; IC50 (VACV): 20 µM; inhibition at 10 µM (VSV_Blam_VLP fusion): > 50%; TC50 SFV (7h) (HeLa Kyoto cells): >50000 µM; viability at 10 µM (in vitro [4]): 92%; viability at 10 µM (in vitro [5]): 60.4%
